We go through seven molecules from patent US20100041760A1, “MONOARYL AMINOTETRALINES” (priority 2008, published 2010).

The target of assay [1] is T1, thromboxane A2 receptor (TP) (Homo sapiens, UniProt P21731).
T1 construct: using human platelets as the source of the receptor; from tissue; host or cells: human platelets (whole platelets, 5x10^7 per well)
T1 sequence (P21731 1-343): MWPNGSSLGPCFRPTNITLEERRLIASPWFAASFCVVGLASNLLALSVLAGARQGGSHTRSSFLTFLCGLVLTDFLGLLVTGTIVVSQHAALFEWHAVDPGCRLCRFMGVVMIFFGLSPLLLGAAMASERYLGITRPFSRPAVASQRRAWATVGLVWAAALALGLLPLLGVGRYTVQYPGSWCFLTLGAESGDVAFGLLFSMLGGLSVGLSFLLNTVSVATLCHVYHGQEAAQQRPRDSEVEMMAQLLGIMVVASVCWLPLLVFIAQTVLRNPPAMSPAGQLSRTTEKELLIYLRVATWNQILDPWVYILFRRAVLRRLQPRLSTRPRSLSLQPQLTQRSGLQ
Description: Human Thromboxane A2 Receptor Binding Assay. Conditions: human platelets; 10 nM [3H]SQ29548; 1 hour, room temperature. The source says:
The thromboxane A2 receptor (TP) plays a key role in hemostasis as its abnormality leads to bleeding disorders. To avoid the potential liability of bleeding disorders, the binding activity of certain compounds of the present invention against TP was monitored by a receptor binding assay using human platelets as the source of the receptor and [^3H]SQ29548 (generically named (5Z)-[5,6-^3H]-7-[(1S,2R,3R,4R)-3-[[2-[(phenylamino)carbonyl]hydrazinyl]methyl]-7-oxabicyclo[2.2.1]hept-2-yl]-5-heptenoic acid, from PerkinElmer Inc.) as the competing radioactive ligand.
The TP binding reactions (0.2 mL) were performed in 96-well plates at room temperature in PBS containing 5×10^7 platelets, 10 mM MgCl2, 0.06% BSA, 10 nM [^3H]SQ29548, and the test compound at various concentrations. After 1 hour of binding reactions, the platelets were harvested on GF/B filter plates (as previously described from PerkinElmer Inc.) and washed 5 times with PBS using a Filtermate™ Harvester (as previously described from PerkinElmer Inc.). The radioactivities bound to the platelets were determined using a microplate scintillation counter (TopCount® NXT, from PerkinElmer Inc.) after adding 50 μL of Microscint™ 20 scintillation fluid (from PerkinElmer Inc.) to each well of the filter plates. The radioactivity from non-specific binding was determined by replacing the compound with 10 μM of ramatroban (BAY-u3405, from Cayman Chemical Company) in the reaction mixtures. The radioactivity bound to the platelets in the absence of compound (total binding) was determined by replacing the compound with 0.25% of DMSO in the reaction mixture. Specific binding data were obtained by subtracting the radioactivity of non-specific binding from each binding data.
(§1) The IC50 value is defined as the concentration of the tested compound that is required for 50% inhibition of total specific binding. In order to calculate the IC50 value, the percent inhibition data were determined for 7 concentrations for each compound. The percent inhibition for a compound at each concentration was calculated according to the following formula, [1−(specific binding in the presence of compound)/(total specific binding)]×100. The IC50 value was then obtained by fitting the percent inhibition data to a sigmoidal dose-response (4 parameter logistic) model in the XLfit® software Excel add-in program [from ID Business Solutions Ltd., model 205, where F(x)=(A+(B−A)/(1+((C/x)̂D)))].

For assay [2], the target named is T2, human CRTH2 (Homo sapiens, UniProt Q9Y5Y4).
T2 sequence (Q9Y5Y4 1-395): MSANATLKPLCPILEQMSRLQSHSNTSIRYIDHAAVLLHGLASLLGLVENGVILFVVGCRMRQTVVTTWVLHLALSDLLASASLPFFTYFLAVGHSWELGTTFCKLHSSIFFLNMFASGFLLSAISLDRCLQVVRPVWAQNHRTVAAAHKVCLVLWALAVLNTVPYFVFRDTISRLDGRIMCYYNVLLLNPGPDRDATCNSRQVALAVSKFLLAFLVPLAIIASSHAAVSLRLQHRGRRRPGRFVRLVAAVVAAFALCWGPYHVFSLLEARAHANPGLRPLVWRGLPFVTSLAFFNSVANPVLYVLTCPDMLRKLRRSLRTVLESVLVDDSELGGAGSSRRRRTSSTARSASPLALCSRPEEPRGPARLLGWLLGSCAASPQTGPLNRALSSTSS
Kind of assay: Human CRTH2 Receptor Binding Assay (whole cell, [3H]ramatroban competition). More on the design: expressed in transfected cells; host or cells: CHO-K1 (co-transfected with G-alpha16). Conditions: CHO-K1 cells expressing human CRTH2 and G-alpha16; 20 nM [3H]ramatroban; 1 hour, room temperature.
Description: A whole cell receptor binding assay using [^3H]ramatroban as the competing radioactive ligand was employed to evaluate the compound binding activity to human CRTH2. The radioactive ligand [^3H]ramatroban was synthesized according to Sugimoto et. al. (Eur. J. Pharmacol. 524, 30-37, 2005) to a specific activity of 42 Ci/mmol.
A cell line stably expressing human CRTH2 was established by transfecting CHO-K1 cells with two mammalian expression vectors that harbored human CRTH2 and G-alpha16 cDNAs, respectively, using FuGene® 6 transfection reagent (from Roche). Stable clones expressing CRTH2 were selected by staining each clone with BM16 (BD Pharmingen™ from BD Biosciences, a division of Becton, Dickinson and Company), which is a rat monoclonal antibody to human CRTH2. The cells were maintained as monolayer cultures in Ham's F-12 medium containing 10% fetal bovine serum, 100 units/mL penicillin, 100 μg/mL streptomycin, 2 mM glutamine, 0.5 mg/mL G418 (geneticin) for CRTH2, and 0.2 mg/mL hygromycin-B (for G-alpha 16). For whole cell receptor binding assay, the monolayer cells were rinsed once with PBS (phosphate buffered saline), dissociated using ethylenediaminetetraacetate (Versene™ EDTA from Lonza Inc.), and suspended in PBS containing 10 mM MgCl2 and 0.06% BSA (bovine serum albumin) at 1.5×10^6 cells/mL.
The binding reactions (0.2 mL) were performed in 96-well plates at room temperature in PBS containing 1.5×10^5 cells, 10 mM MgCl2, 0.06% BSA, 20 nM [^3H]ramatroban, and test compound at various concentrations. After 1 hour of binding reactions, the cells were harvested on GF™/B filter microplates (microtiter plates with embedded glass fiber from PerkinElmer, Inc.) and washed 5 times with PBS using a Filtermate™ Harvester (a cell harvester that harvests and washes cells from microplates from PerkinElmer, Inc.). The radioactivities bound to the cells were determined using a microplate scintillation counter (TopCount® NXT, from PerkinElmer, Inc.) after adding 50 μL of Microscint™ 20 scintillation fluid (from PerkinElmer, Inc.) to each well of the filter plates. The radioactivity from non-specific binding was determined by replacing compound with 10 μM of 15(R)-15-methyl PGD2 (from Cayman Chemical Company) in the reaction mixtures. The radioactivity bound to the cells in the absence of compound (total binding) was determined by replacing compound with 0.25% of DMSO (dimethyl sulfoxide) in the reaction mixture. Specific binding data were obtained by subtracting the radioactivity of non-specific binding from each binding data.
as §1

pIC50: −log10 of the molar value.

Regarding `CN([C@@H]1CCCc2c(OCC(=O)O)cccc21)S(=O)(=O)c1cc(F)cc(C(F)(F)F)c1` [Example 1-1, {(R)-5-[(3-fluoro-5-trifluoromethyl-benzenesulfonyl)-methyl-amino]-5,6,7,8-tetrahydro-naphthalen-1-yloxy}-acetic acid], the figures for the pIC50 in assay [1] and in assay [2] were < 5.00 and 6.42, respectively.
For `CCN(CC)c1cc(C(F)(F)F)cc(S(=O)(=O)N(C)[C@@H]2CCCc3c(OCC(=O)O)cccc32)c1` [Example 4-2, {(R)-5-[(3-diethylamino-5-trifluoromethyl-benzenesulfonyl)-methyl-amino]-5,6,7,8-tetrahydro-naphthalen-1-yloxy}-acetic acid], the results for the pIC50 in assay [1] and in assay [2] were < 5.00 and 6.11, respectively.
For `O=C(O)COc1cccc2c1CCC[C@H]2NS(=O)(=O)c1cc(Cl)cc(Cl)c1` [Example 10-1, [(R)-5-(3,5-dichloro-benzenesulfonylamino)-5,6,7,8-tetrahydro-naphthalen-1-yloxy]-acetic acid] the same measures were 6.90 and 6.47.
On the same counts, the results for `O=C(O)COc1cccc2c1CCC[C@H]2NS(=O)(=O)c1cc(F)cc(C(F)(F)F)c1` [Example 10-12, [(R)-5-(3-fluoro-5-trifluoromethyl-benzenesulfonylamino)-5,6,7,8-tetrahydro-naphthalen-1-yloxy]-acetic acid] are 6.47 and 7.70.
Turning to `O=C(O)COc1cccc2c1CCC[C@H]2NS(=O)(=O)c1cc(F)cc(F)c1` [Example 10-5, [(R)-5-(3,5-difluoro-benzenesulfonylamino)-5,6,7,8-tetrahydro-naphthalen-1-yloxy]-acetic acid], the values for the pIC50 in assay [1] and in assay [2] were 5.62 and 7.89, respectively.
For the molecule `CN([C@@H]1CCCc2c(OCC(=O)O)cccc21)S(=O)(=O)c1cc(OC2CCCC2)cc(C(F)(F)F)c1` [Example 9-3, {(R)-5-[(3-cyclopentyloxy-5-trifluoromethyl-benzenesulfonyl)-methyl-amino]-5,6,7,8-tetrahydro-naphthalen-1-yloxy}-acetic acid], the pIC50 (commonly −log10 of the IC50, conventionally taken in molar units) is 5.07 in assay [1] and 6.37 in assay [2].
For `CCOc1cc(C(F)(F)F)cc(S(=O)(=O)N(C)[C@@H]2CCCc3c(OCC(=O)O)cccc32)c1` [Example 9-2, {(R)-5-[(3-ethoxy-5-trifluoromethyl-benzenesulfonyl)-methyl-amino]-5,6,7,8-tetrahydro-naphthalen-1-yloxy}-acetic acid] the same measures were < 5.00 and 6.40.
